“And” between values parts separate entries of the source, which are not always exact repeats. Equal values may be shown once. Where only a bound is given, the exact number is not on record here.

In one experiment the target is T1, SV2AEM (Homo sapiens, UniProt Q7L0J3).
T1 construct: expressed in transfected cells; host or cells: HEK293 (ATCC CRL-1573), crude membranes (transient transfection or baculovirus)
The experiment is described as follows: Competitive displacement of 10 nM 3H-UCB-J, SV2AEM membranes (Fig. 1A). Format: binding. The conditions noted are these: for Binding of 3H-UCB-J (%): SV2A_EM; for binding response of SV2AEM vs wild-type SV2A: competition with 3H-UCB-J. How it is done: (§1) Ligand binding studies were carried out using crude membranes prepared from HEK293 cells (ATCC, CRL-1573) overexpressing mVenus-SV2AWT or SV2AEM. Membranes were prepared either from transiently transfected cells or from baculovirus-infected cells as described previously. Cells were washed with DPBS (Ca^2+ and Mg^2+ free), followed by resuspending in cold SH buffer (10 mM HEPES-Tris pH 7.4, 320 mM sucrose) containing protease inhibitor cocktail (MedChemExpress) to a density of 10^7 cells/ml. This cell suspension was homogenized by passing through a bead homogenizer (Isobiotec) with 10-micron clearance bead on ice. The lysate was then centrifuged at 4000 × g for 5 min at 4 °C, and the supernatant was aliquoted, frozen in liquid nitrogen, and stored at −80 °C. The mVenus fluorescence estimated using fluorescence size-exclusion chromatography (FSEC) was used to normalize expression levels of mVenus-SV2A mutants studied as detailed previously. For all binding studies, membranes containing […] protein (estimated by BCA method) per reaction were used.
(§2) To obtain dose-response curves of studied SV2A ligands, membranes diluted in 0.2 ml binding buffer (50 mM Tris-Cl, pH 7.4, and 2 mM MgCl2) were incubated with indicated concentrations of ligands for 30 min at 4 °C. […] The binding reaction was arrested by trapping membranes on Unifilter-GF/C 96-well filter plates (Revvity) pre-soaked with 0.1%(w/v) polyethyleneimine (PEI). Membranes were then washed four times with 0.2 ml of cold binding buffer, dried, and 40 µl of scintillation liquid was added to each well. Radioactivity was monitored in MicroBeta2 plate counter (Revvity). Estimates for IC50 were obtained from fitting the data to three-parameter dose-response curves using GraphPad Prism 10.

The target of a further experiment is T2, SV2AWT (Homo sapiens, UniProt Q7L0J3).
T2 construct: expressed in transfected cells; host or cells: HEK293 (ATCC CRL-1573), crude membranes
T2 sequence (Q7L0J3 whole entry): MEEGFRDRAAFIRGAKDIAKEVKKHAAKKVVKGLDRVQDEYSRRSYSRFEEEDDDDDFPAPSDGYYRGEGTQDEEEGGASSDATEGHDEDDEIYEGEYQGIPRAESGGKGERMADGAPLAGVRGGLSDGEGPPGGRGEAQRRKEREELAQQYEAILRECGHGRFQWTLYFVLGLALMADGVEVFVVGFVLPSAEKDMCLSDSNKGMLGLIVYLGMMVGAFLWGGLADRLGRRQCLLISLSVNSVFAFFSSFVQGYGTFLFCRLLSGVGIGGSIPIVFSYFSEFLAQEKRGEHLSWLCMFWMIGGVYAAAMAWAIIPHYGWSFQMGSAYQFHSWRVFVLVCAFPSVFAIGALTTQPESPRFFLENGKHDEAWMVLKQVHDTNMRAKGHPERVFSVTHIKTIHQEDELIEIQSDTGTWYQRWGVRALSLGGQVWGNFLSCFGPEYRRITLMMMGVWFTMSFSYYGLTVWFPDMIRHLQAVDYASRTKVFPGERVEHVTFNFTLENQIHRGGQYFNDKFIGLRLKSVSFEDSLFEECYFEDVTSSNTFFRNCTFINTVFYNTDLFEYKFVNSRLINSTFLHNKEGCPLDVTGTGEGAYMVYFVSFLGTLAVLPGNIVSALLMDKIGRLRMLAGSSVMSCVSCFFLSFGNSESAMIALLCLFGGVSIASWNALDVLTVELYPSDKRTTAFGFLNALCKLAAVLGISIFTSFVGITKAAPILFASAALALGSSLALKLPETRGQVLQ
The experiment is described as follows: Competitive displacement of 10 nM 3H-UCB-J, SV2AWT membranes (Fig. 1A). The experiment is classed as binding. The conditions noted are these: SV2A_WT. How it is done:
as §1, §2

The subject of experiment [1] is SV2A WT and L655Q. The experiment can be described thus: 3H-padsevonil saturation binding, WT and L655Q (Supplementary Fig. 7D). The conditions noted are these: L655Q vs WT. Details: species or system human. How it is done: as §1
An equal volume of dimethyl sulfoxide (DMSO) was added to control reactions. Reactions were arrested after 2 h by trapping the membranes on a Unifilter-GF/C 96-well filter plate pre-soaked with 0.1%(w/v) polyethyleneimine. […] Radioactivity was monitored in MicroBeta2 plate counter. […]

Experiment [2] has as its system SV2A WT and L655Q. More on the design: method as in PMID: 31619465. The conditions noted are these: previous literature; ref PMID: 31619465; cited from earlier work.
The test system of experiment [3] is SV2A. More on the design: method as in PMID: 31619465. The conditions noted are these: PSL vs BRV; ref PMID: 31619465; cited from earlier work.
The test system of experiment [4] is SV2A. The experiment is described as follows: Affinity of PSL for the orthosteric site compared with LEV and BRV (author response). The experiment is classed as binding. The conditions noted are these: PSL vs LEV. The text has this:
- Does PSL modulate the binding of LEV or BRV to SV2A? Based on the ﬁndings of the present study, such experiments need to be included.
We appreciate this comment. It is not feasible to evaluate the modulatory eƯect of PSL on the binding of LEV or BRV, because PSL also binds to the orthosteric site, with much higher aƯinity than LEV (>1000-fold) or BRV (~100-fold), and directly competes with and readily displaces them (see Fig. below, for LEV , and PMID:
31619465 for BRV). This competitive eƯect of PSL on LEV and BRV has also been described in the literature (PMID: 31619465). We have discussed this limitation in the revised manuscript.
- SV2s belong to the SLC22 family. Is the allosteric binding site conserved in some of these proteins like for […]
Among the four key residues in the allosteric site (F188, Y461, S601, and L655), F188 and Y461 are conserved in OCT1 and OCT2; S601 is not conserved, and L655 is replaced by an alanine in OCT1 and OCT2 (Fig. below).
- Because no information is provided, I guess that the allosteric binding site of SV2A is not conserved in all MFS transporters. Therefore, the title is misleading and should be changed.
As described above, some of the key residues at this site are conserved in OCTs. However, it is unlikely that any single site, orthosteric or allosteric, is conserved across the entire MFS transporter family, and we fully […]

T1 sequence (Q7L0J3 141-742): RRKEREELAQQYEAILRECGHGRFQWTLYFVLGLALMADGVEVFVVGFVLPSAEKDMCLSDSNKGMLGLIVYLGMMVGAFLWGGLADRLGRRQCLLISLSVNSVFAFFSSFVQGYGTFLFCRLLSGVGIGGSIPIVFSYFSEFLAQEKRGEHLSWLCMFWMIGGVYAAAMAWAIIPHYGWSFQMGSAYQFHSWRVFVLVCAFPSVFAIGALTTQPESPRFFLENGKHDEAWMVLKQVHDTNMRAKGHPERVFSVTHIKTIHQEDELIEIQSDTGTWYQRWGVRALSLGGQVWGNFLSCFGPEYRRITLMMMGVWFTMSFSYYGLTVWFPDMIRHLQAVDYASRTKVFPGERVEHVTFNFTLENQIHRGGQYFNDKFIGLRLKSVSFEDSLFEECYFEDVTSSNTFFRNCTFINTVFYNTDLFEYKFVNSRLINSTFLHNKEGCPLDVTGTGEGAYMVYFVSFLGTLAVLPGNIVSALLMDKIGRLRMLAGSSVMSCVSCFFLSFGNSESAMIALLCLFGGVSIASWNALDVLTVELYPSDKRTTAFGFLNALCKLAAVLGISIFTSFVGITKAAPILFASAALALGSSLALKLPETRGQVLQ

`Cc1cnccc1CN1C[C@@H](c2cc(F)c(F)c(F)c2)CC1=O` [UCB-J]: the “Binding of 3H-UCB-J (%)” value was 2.78% and -1.47% and -5.78% and -0.31% and 4.06% and 1.75% on SV2AEM (Log [1H-UCB-J] (M) -6.523); 15.59% and 10.62% and 12.56% and 12.68% and 13.47% and 20.94% at SV2AEM (Log [1H-UCB-J] (M) -7.523); 31.93% and 22.52% and 28.83% and 28.77% and 31.87% and 32.29% at SV2AEM (Log [1H-UCB-J] (M) -8.000); 75.64% and 50.69% and 48.99% and 56.15% and 58.52% and 59.86% at SV2AEM (Log [1H-UCB-J] (M) -8.523); 73.21% and 53.48% and 72.67% and 79.47% and 76.43% and 84.63% on SV2AEM (Log [1H-UCB-J] (M) -9.000); 81.17% and 90.15% at SV2AEM (Log [1H-UCB-J] (M) -10.000). For the same compound, the “Binding of 3H-UCB-J (%)” value on SV2AEM (Log [1H-UCB-J] (M) -11.000) is 103.75% and 70.18% and 88.51% and 77.34% and 86.03% and 113.17%; at SV2AEM (Log [1H-UCB-J] (M) -12.000), 116.50% and 86.88% and 109.04% and 74.97% and 104.60% and 108.00%; on SV2AWT (Log [1H-UCB-J] (M) -5.000), 0.68% and -0.10%; on SV2AWT (Log [1H-UCB-J] (M) -6.000), 0.71% and -0.36% and 1.84% and 0.28% and 0.81% and 0.45%; on SV2AWT (Log [1H-UCB-J] (M) -6.523), 1.22% and 0.52% and -0.33% and 0.54% and 1.39% and 0.90%; on SV2AWT (Log [1H-UCB-J] (M) -7.523) it was 12.02% and 10.25% and 9.91% and 8.99% and 8.62% and 8.05%. Moreover, the “Binding of 3H-UCB-J (%)” value was 31.03% and 29.35% and 27.21% and 30.71% and 28.47% and 28.55% at SV2AWT (Log [1H-UCB-J] (M) -8.000); 65.52% and 65.94% and 58.12% and 42.68% and 40.88% and 45.33% on SV2AWT (Log [1H-UCB-J] (M) -8.523); 87.65% and 87.60% and 75.33% and 94.15% and 69.01% and 65.28% on SV2AWT (Log [1H-UCB-J] (M) -9.000); 75.61% and 87.06% and 81.72% and 100.70% and 107.65% and 91.65% at SV2AWT (Log [1H-UCB-J] (M) -9.523); 99.86% and 95.05% and 102.73% and 88.69% and 93.37% and 102.84% at SV2AWT (Log [1H-UCB-J] (M) -10.000); 103.52% and 102.05% and 94.43% and 83.50% and 83.58% and 84.45% on SV2AWT (Log [1H-UCB-J] (M) -11.000). Besides, on SV2AEM (UCB-J vs levetiracetam), the “IC50 fold lower than that of levetiracetam” value is listed as 1000 fold. In addition, at SV2AEM, the “binding response of SV2AEM vs wild-type SV2A” value was “comparable to those of wild-type SV2A”. Further, the IC50 (as a rule, the concentration that gives 50% inhibition) at SV2AEM (radioligand displacement, 10 nM 3H-UCB-J, padsevonil sentence prints SV2A (Fig. 1)) was 4.1 ± 0.4 nM.
For the compound `COCc1nn2c(CN3C[C@@H](CC(F)(F)Cl)CC3=O)c(C(F)(F)F)nc2s1` [padsevonil], the “Binding of 3H-UCB-J (%)” value at SV2AEM (Log [Padsevonil] (M) -5.000) was 3.25% and 0.52% and -0.52% and -1.49% and 2.74% and 1.94%; at SV2AEM (Log [Padsevonil] (M) -6.000) it was 0.40% and 1.18% and 0.39% and -2.99% and 2.99% and -0.40%; on SV2AEM (Log [Padsevonil] (M) -6.523), 3.53% and 6.77% and 1.25% and 5.54% and 6.72% and 2.16%; on SV2AEM (Log [Padsevonil] (M) -8.000), 61.56% and 69.84% and 60.36% and 64.16% and 85.63% and 52.51%; at SV2AEM (Log [Padsevonil] (M) -8.523) it was 98.63% and 86.36% and 64.73% and 84.51% and 93.84% and 76.42%; at SV2AEM (Log [Padsevonil] (M) -9.000), 99.89% and 102.95% and 84.66% and 80.15% and 101.99% and 100.11%. For the same compound, the “Binding of 3H-UCB-J (%)” value was 102.45% and 91.95% and 108.05% and 96.45% and 103.55% and 82.92% on SV2AEM (Log [Padsevonil] (M) -10.000); 0.15% and -0.08% and -0.07% and 0.0758% and -0.0562% at SV2AWT (Log [Padsevonil] (M) -5.523); 0.06% and 0.26% and 0.47% and 0.68% and 0.17% and 0.52% on SV2AWT (Log [Padsevonil] (M) -6.000); -0.0333% and 0.63% and 1.13% and 0.79% and 1.06% at SV2AWT (Log [Padsevonil] (M) -6.523); 0.99% and 1.18% and 1.52% and 1.41% and 1.96% and 1.26% at SV2AWT (Log [Padsevonil] (M) -7.000); 11.48% and 11.90% and 12.69% and 11.26% and 10.29% and 8.18% on SV2AWT (Log [Padsevonil] (M) -7.523). Also, the “Binding of 3H-UCB-J (%)” value was 53.01% and 65.10% and 62.58% and 68.15% and 66.28% and 57.17% on SV2AWT (Log [Padsevonil] (M) -8.000); 80.92% and 83.61% and 90.83% and 87.28% and 90.55% and 93.06% at SV2AWT (Log [Padsevonil] (M) -8.523); 70.83% and 92.57% and 94.89% and 80.96% and 85.33% and 98.78% on SV2AWT (Log [Padsevonil] (M) -9.000); 81.14% and 79.95% and 92.20% and 92.92% and 81.04% and 90.08% at SV2AWT (Log [Padsevonil] (M) -9.523); 105.07% and 88.23% and 106.70% and 105.83% and 107.31% and 86.86% on SV2AWT (Log [Padsevonil] (M) -10.000). Besides, the “binding response of SV2AEM vs wild-type SV2A” value at SV2AEM was “comparable to those of wild-type SV2A”. For the same compound, the “padsevonil binding in L655Q mutant compared to wild-type” value with SV2A WT and L655Q [1] is given as “not able to detect a substantial difference”. Also, the Hill coefficient – broadly, the slope factor of the fitted curve – in the experiment on SV2A WT and L655Q [2] is given as about 1. The “orthosteric site affinity higher than BRV” value in the experiment with SV2A [3] is ~ 100 fold. The “orthosteric site affinity higher than LEV” value in the experiment with SV2A [4] is on record as over 1000 fold.
